≈ marks a conversion by molar mass, not a printed value. Calls of active or inactive are those of the source. No cut-off for these calls is given here.
Key:
Mus musculus [1] = assay: Toxicity in po dosed NMRI mouse; format: organism-based; details: in vivo
Staphylococcus aureus [2] = assay: Antibacterial activity against trimethoprim-sensitive Staphylococcus aureus ATCC 29213 infected in NMRI mouse model of septicemia assessed as succumbed to infections at 1.6 mg/kg, iv; format: functional, organism-based; parameters: dose 1.6 mg/kg
[3] = test system: Staphylococcus epidermidis; assay: Antibacterial activity against methicillin-sensitive dfrC, dfrA-positive and dfrD-negative Staphylococcus epidermidis; format: functional
[4] = Tmax in NMRI mouse blood at 25 mg/kg administered through oral gavage measured after 7 hrs; format: ADME, organism-based; parameters: dose 25 mg/kg, route oral
Streptococcus pneumoniae [5] = assay: Antibacterial activity against Streptococcus pneumoniae in presence of 250 ug/ml thymidine; format: functional
Staphylococcus aureus [6] = assay: Antibacterial activity against methicillin-resistant dfrB, dfrG-positive and dfrA-negative Staphylococcus aureus; format: functional
Staphylococcus aureus [7] = assay: Antibacterial activity against trimethoprim-sensitive Staphylococcus aureus ATCC 29213; format: functional
Streptococcus pneumoniae [8] = assay: Antibacterial activity against Streptococcus pneumoniae in presence of 50 ug/ml thymidine; format: functional
Staphylococcus aureus [9] = assay: Antibacterial activity against vancomycin, trimethoprim-sensitive and methicillin-resistant Staphylococcus aureus ATCC 43300 harboring dfrB gene; format: functional
Dihydrofolate reductase = Dihydrofolate reductase (Staphylococcus aureus, UniProt P0A017, F99Y); assay: Inhibition of trimethoprim-resistant Staphylococcus aureus DfrB type dihydrofolate reductase F98Y mutant
[10] = test system: Staphylococcus epidermidis; assay: Antibacterial activity against methicillin, vancomycin, trimethoprim-sensitive Staphylococcus epidermidis ATCC 14990 harboring dfrC gene; format: functional
Mycobacterium avium = assay: Antibacterial activity against Mycobacterium avium assessed as inhibition of bacterial growth at <=4 ug/ml; format: functional; parameters: scale not given: the % may be the effect or the level left
[11] = AUC (0 to t) in NMRI mouse blood at 25 mg/kg administered through oral gavage after 7 hrs; format: ADME, organism-based; parameters: time < 7 hr, dose 25 mg/kg, route oral
Mus musculus [12] = assay: Hepatotoxicity in NMRI mouse assessed as single-cell necrosis at 400 mg/kg administered through oral gavage for 10 days; format: toxicity, organism-based; parameters: dose 400 mg/kg, route oral; details: in vivo, 240 h
Staphylococcus aureus [13] = assay: Antibacterial activity against trimethoprim-resistant Staphylococcus aureus BAS003908 infected in NMRI mouse model of septicemia; format: functional
HeLa = assay: Cytotoxicity against human HeLa cells; format: cell-based
[14] = Oral bioavailability in NMRI mouse; format: ADME, organism-based; details: in vivo
Mus musculus [15] = assay: Hepatotoxicity in NMRI mouse assessed as increase in liver weight at 400 mg/kg administered through oral gavage for 10 days; format: toxicity, organism-based; parameters: dose 400 mg/kg, route oral; details: in vivo, 240 h
Haemophilus influenzae [16] = assay: Antibacterial activity against Haemophilus influenzae; format: functional
Staphylococcus aureus [17] = assay: Antibacterial activity against vancomycin, trimethoprim, methicillin-resistant Staphylococcus aureus VRS1 harboring dfrA and dfrB genes; format: functional
Enterococcus faecium [18] = assay: Antibacterial activity against Enterococcus faecium in presence of 250 ug/ml thymidine; format: functional
Mus musculus [19] = assay: Hepatotoxicity in NMRI mouse assessed as increase in mitosis at 400 mg/kg administered through oral gavage for 5 days; format: toxicity, organism-based; parameters: dose 400 mg/kg, route oral; details: in vivo, 120 h
[20] = test system: Staphylococcus epidermidis; assay: Antibacterial activity against methicillin-resistant dfrC, dfrA-positive and dfrA within SCCmec-N1, dfrD-negative Staphylococcus epidermidis; format: functional
Staphylococcus aureus [21] = assay: Antibacterial activity against methicillin-resistant dfrA within SCCmec-N1, dfrA and dfrG -negative Staphylococcus aureus harboring F98Y mutation in dfrB gene; format: functional
Staphylococcus aureus [22] = assay: Antibacterial activity against methicillin-sensitive dfrB-positive abd dfrA, dfrG-negative Staphylococcus aureus; format: functional
Streptococcus pneumoniae [23] = assay: Antibacterial activity against Streptococcus pneumoniae
Enterococcus faecalis [24] = assay: Antibacterial activity against Enterococcus faecalis in presence of 250 ug/ml thymidine; format: functional
[25] = test system: Staphylococcus epidermidis; assay: Antibacterial activity against methicillin-sensitive dfrC-positive and dfrA, dfrD-negative Staphylococcus epidermidis; format: functional
Enterococcus faecium [26] = assay: Antibacterial activity against vancomycin-resistant dfrE, dfrF-negative and folA-positive Enterococcus faecium; format: functional
Enterococcus faecium [27] = assay: Antibacterial activity against vancomycin-sensitive dfrE, dfrF-negative and folA-positive Enterococcus faecium; format: functional
[28] = Cmax in NMRI mouse blood at 25 mg/kg administered through oral gavage measured after 7 hrs; format: ADME, organism-based; parameters: dose 25 mg/kg, route oral
Staphylococcus aureus [29] = assay: Antibacterial activity against methicillin, vancomycin, trimethoprim-sensitive Staphylococcus aureus ATCC 29213 harboring dfrB gene; format: functional
Staphylococcus aureus [30] = assay: Antibacterial activity against trimethoprim-sensitive Staphylococcus aureus ATCC 29213 infected in NMRI mouse model of septicemia; format: functional
Haemophilus influenzae [31] = assay: Antibacterial activity against Haemophilus influenzae in presence of 50 ug/ml thymidine
Enterococcus faecium [32] = assay: Antibacterial activity against Enterococcus faecium; format: functional
Enterococcus faecalis [33] = assay: Antibacterial activity against Enterococcus faecalis; format: functional
Mus musculus [34] = assay: Hepatotoxicity in NMRI mouse assessed as inflammatory infiltrates at 400 mg/kg administered through oral gavage for 10 days; format: toxicity, organism-based; parameters: dose 400 mg/kg, route oral; details: in vivo, 240 h
Staphylococcus aureus [35] = assay: Antibacterial activity against methicillin-resistant dfrB, dfrA-positive and dfrA within SCCmec-N1, dfrG-negative Staphylococcus aureus; format: functional
[36] = test system: Staphylococcus epidermidis; assay: Antibacterial activity against methicillin-sensitive dfrA-positive and dfrD-negative Staphylococcus epidermidis harboring F98Y mutation in dfrC gene; format: functional
Staphylococcus aureus [37] = assay: Antibacterial activity against trimethoprim-sensitive Staphylococcus aureus ATCC 29213 infected in NMRI mouse model of septicemia assessed as complete protection from infections at 3.1 mg/kg, iv; format: functional, organism-based; parameters: dose 3.1 mg/kg
Mus musculus [38] = assay: Hepatotoxicity in NMRI mouse assessed as increase in liver weight at 400 mg/kg administered through oral gavage for 5 days; format: toxicity, organism-based; parameters: dose 400 mg/kg, route oral; details: in vivo, 120 h
[39] = test system: Staphylococcus epidermidis; assay: Antibacterial activity against methicillin-sensitive dfrA, dfrD-negative Staphylococcus epidermidis harboring F98Y mutation in dfrC gene; format: functional
Enterococcus faecium [40] = assay: Antibacterial activity against Enterococcus faecium in presence of 50 ug/ml thymidine; format: functional
Haemophilus influenzae [41] = assay: Antibacterial activity against Haemophilus influenzae in presence of 250 ug/ml thymidine; format: functional
Mus musculus [42] = assay: Hepatotoxicity in NMRI mouse assessed as single-cell necrosis at 400 mg/kg administered through oral gavage for 5 days; format: toxicity, organism-based; parameters: dose 400 mg/kg, route oral; details: in vivo, 120 h
Enterococcus faecalis [43] = assay: Antibacterial activity against vancomycin-sensitive dfrE, dfrF-positive and folA-negative Enterococcus faecalis; format: functional
[44] = Inhibition of trimethoprim-sensitive Staphylococcus aureus DfrB type dihydrofolate reductase
Staphylococcus aureus [45] = assay: Antibacterial activity against trimethoprim-resistant Staphylococcus aureus BAS003908; format: functional
[46] = Inhibition of trimethoprim-resistant Staphylococcus aureus Type S1 dihydrofolate reductase
Enterococcus faecalis [47] = assay: Antibacterial activity against Enterococcus faecalis in presence of 50 ug/ml thymidine; format: functional
Mus musculus [48] = assay: Hepatotoxicity in NMRI mouse assessed as increase in mitosis at 400 mg/kg administered through oral gavage for 10 days; format: toxicity, organism-based; parameters: dose 400 mg/kg, route oral; details: in vivo, 240 h
Mus musculus [49] = assay: Hepatotoxicity in NMRI mouse assessed as inflammatory infiltrates at 400 mg/kg administered through oral gavage for 5 days; format: toxicity, organism-based; parameters: dose 400 mg/kg, route oral; details: in vivo, 120 h
Enterococcus faecalis [50] = assay: Antibacterial activity against vancomycin-sensitive folA, dfrF-negative Enterococcus faecalis harboring A5T, K88N, F102Y mutation in dfrE gene; format: functional
[51] = test system: Staphylococcus epidermidis; assay: Antibacterial activity against methicillin, vancomycin-sensitive and trimethoprim-resistant Staphylococcus epidermidis BAS000635 harboring dfrC and dfrA genes; format: functional

COc1cc(Cc2cnc(N)nc2N)cc(/C=C/C(=O)N2N=Cc3ccccc3C2c2cnc(N3CCOCC3)nc2)c1OC (stereo unspecified)
Activity (Mus musculus [1]): 400 mg/kg
Activity (Staphylococcus aureus [2]): inactive
MIC [3]: 1 µg/mL (≈ 1.65 µM)
Tmax [4]: 6 h
MIC (Streptococcus pneumoniae [5]): ≥ 128 µg/mL
MIC (Staphylococcus aureus [6]): 64 µg/mL (≈ 105 µM)
MIC (Staphylococcus aureus [7]): 0.5 µg/mL (≈ 0.823 µM)
MIC (Streptococcus pneumoniae [8]): ≥ 128 µg/mL
MIC (Staphylococcus aureus [9]): 0.5 µg/mL (≈ 0.823 µM)
IC50 (Dihydrofolate reductase): 124 nM
MIC [10]: 0.25 µg/mL (≈ 0.411 µM)
Activity (Mycobacterium avium): 77%
AUC(0-t) at 7 h [11]: 5590 ng·h/mL
Activity (Mus musculus [12]): < 10%
ED50 (Staphylococcus aureus [13]): 1.6 mg/kg
IC50 (HeLa): 12000 nM
bioavailability [14]: 29%
Activity (Mus musculus [15]): < 10%
MIC (Haemophilus influenzae [16]): > 128 µg/mL
MIC (Staphylococcus aureus [17]): 2 µg/mL (≈ 3.29 µM)
MIC (Enterococcus faecium [18]): > 128 µg/mL
Activity (Mus musculus [19]): < 10%
MIC [20]: 1 µg/mL (≈ 1.65 µM)
MIC (Staphylococcus aureus [21]): 1 µg/mL (≈ 1.65 µM)
MIC (Staphylococcus aureus [22]): 0.5 µg/mL (≈ 0.823 µM)
MIC (Streptococcus pneumoniae [23]): ≥ 128 µg/mL
MIC (Enterococcus faecalis [24]): 2 µg/mL
MIC [25]: < 0.25 µg/mL
MIC (Enterococcus faecium [26]): 2 µg/mL (≈ 3.29 µM)
MIC (Enterococcus faecium [27]): ≤ 0.25 µg/mL
Cmax [28]: 990 ng/mL
MIC (Staphylococcus aureus [29]): 1 µg/mL (≈ 1.65 µM)
ED50 (Staphylococcus aureus [30]): 1.6 mg/kg
MIC (Haemophilus influenzae [31]): ≥ 128 µg/mL
MIC (Enterococcus faecium [32]): 2 µg/mL (≈ 3.29 µM)
MIC (Enterococcus faecalis [33]): 0.5 µg/mL (≈ 0.823 µM)
Activity (Mus musculus [34]): < 10%
MIC (Staphylococcus aureus [35]): 1 µg/mL (≈ 1.65 µM)
MIC (Staphylococcus aureus [35]; Staphylococcus aureus, read-out: MIC): 0.5 µg/mL (≈ 0.823 µM)
MIC [36]: 1 µg/mL (≈ 1.65 µM)
Activity (Staphylococcus aureus [37]): Active
Activity (Mus musculus [38]): < 10%
MIC [39]: 1 µg/mL (≈ 1.65 µM)
MIC (Enterococcus faecium [40]): ≥ 128 µg/mL
MIC (Haemophilus influenzae [41]): ≥ 128 µg/mL
Activity (Mus musculus [42]): < 10%
MIC (Enterococcus faecalis [43]): > 128 µg/mL
IC50 [44]: 12.2 nM
MIC (Staphylococcus aureus [45]): 1 µg/mL (≈ 1.65 µM)
IC50 [46]: 154 nM
MIC (Enterococcus faecalis [47]): ≤ 0.25 µg/mL
Activity (Mus musculus [48]): < 10%
Activity (Mus musculus [49]): < 10%
MIC (Enterococcus faecalis [50]): 1 µg/mL (≈ 1.65 µM)
MIC [51]: 2 µg/mL (≈ 3.29 µM)

COc1ncc([C@H]2c3ccccc3C=NN2C(=O)/C=C/c2cc(Cc3cnc(N)nc3N)cc(OC)c2OC)cn1
MIC (Staphylococcus aureus [9]): 0.125 µg/mL (≈ 0.226 µM)
IC50 (Dihydrofolate reductase): 13.5 nM
MIC [10]: 0.06 µg/mL (≈ 0.109 µM)
MIC (Staphylococcus aureus [17]): 2 µg/mL (≈ 3.62 µM)
MIC (Staphylococcus aureus [29]): 0.25 µg/mL (≈ 0.452 µM)
IC50 [44]: 3.9 nM
IC50 [46]: 98.3 nM
MIC [51]: 1 µg/mL (≈ 1.81 µM)

COc1cc(Cc2cnc(N)nc2N)cc(/C=C/C(=O)N2N=Cc3ccccc3[C@H]2c2cnc(N(C)C)nc2)c1OC
MIC (Staphylococcus aureus [9]): 2 µg/mL (≈ 3.54 µM)
IC50 (Dihydrofolate reductase): 2920 nM
MIC [10]: 0.5 µg/mL (≈ 0.884 µM)
MIC (Staphylococcus aureus [17]): > 8 µg/mL
MIC (Staphylococcus aureus [29]): 2 µg/mL (≈ 3.54 µM)
IC50 [44]: 37.6 nM
IC50 [46]: 1010 nM
MIC [51]: > 8 µg/mL

— ChEMBL document CHEMBL1671659, “In vitro and in vivo properties of dihydrophthalazine antifolates, a novel family of antibacterial drugs” (Antimicrob Agents Chemother, 2009)
